Source: US9617244B2, “Antibacterial quinoline derivatives” (JANSSEN PHARMACEUTICA NV, priority 2012, dated 2017)
Values after ≈ are worked out from the molar mass of the structure shown.

System: Streptococcus pneumoniae (ATCC6305)
Assay: In-vitro anti-bacterial activity, microtitre plate assay, IC90 determination (non-mycobacterial strains)
Format: cell-based
Details: 90% inhibitory concentration for bacterial growth, 24 hours, resazurin fluorescence
Procedure, shortened: (§1)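 Growth inhibition measured fluorometrically with resazurin (530/590 nm) after overnight 37 °C incubation under normal atmosphere. Bacteria added at roughly 100 TCID50 per well in Mueller-Hinton broth to five-fold compound dilution series; IC90 reported in μg/ml.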

| IC90 SPN 6305 [µg/mL] | Compound |
| --- | --- |
| 6.95 (≈ 12.6 µM) | COc1nc2ccc(Br)cc2cc1C(c1ccc(Cl)cc1)C1(O)CCNCC1Cc1ccccc1 (stereo not drawn) [Compound 41] |

Same assay, conditions: Streptococcus pneumoniae, ATCC6305, 24 h, 90% inhibitory concentration for bacterial growth, resazurin fluorescence, read-out: IC90 SPN 6305

| IC90 [µg/mL] | Compound |
| --- | --- |
| 4.37 (≈ 7.92 µM) | COc1nc2ccc(Br)cc2cc1C(c1cccc(Cl)c1)C1(O)CCNC(Cc2ccccc2)C1 (stereo not drawn) [Compound 35] |
| 6.83 (≈ 11.9 µM) | O=c1[nH]c2ccc(Br)cc2cc1C(c1ccc(Cl)cc1)C1(O)CCNC(Cc2ccc(F)c(F)c2)C1 (stereo not drawn) [Compound 40] |
| 4.56 (≈ 8.48 µM) | O=c1[nH]c2ccc(Br)cc2cc1C(c1cccc(Cl)c1)C1(O)CCNC(Cc2ccccc2)C1 (stereo not drawn) [Compound 86] |

System: Staphylococcus aureus (ATCC29213)
Assay: as above
Format: cell-based
Details: 90% inhibitory concentration for bacterial growth, 24 hours, resazurin fluorescence
Procedure, shortened: as §1

| IC90 STA B29213 [µg/mL] | Compound |
| --- | --- |
| 1.82 (≈ 3.38 µM) | O=c1[nH]c2ccc(Br)cc2cc1C(c1cccc(Cl)c1)C1(O)CCNC(Cc2ccccc2)C1 (stereo not drawn) [Compound 86] |
| 3.08 (≈ 6.31 µM) | C=CC1CC(O)(C(c2ccc(Cl)cc2)c2cc3cc(Br)ccc3nc2OC)CCN1 (stereo not drawn) [Compound 374] |
| 7.16 (≈ 12.6 µM) | COc1nc2ccc(S(C)(=O)=O)cc2cc1C(c1ccc(Cl)cc1)C1(O)CCNC(Cc2ccc(F)cc2)C1 (stereo not drawn) [Compound 389] |
| 14.30 (≈ 25.1 µM) | COc1nc2ccc(S(C)(=O)=O)cc2cc1C(c1ccc(Cl)cc1)C1(O)CCNC(Cc2ccc(F)cc2)C1 (stereo not drawn) [Compound 390] |
| 3.59 (≈ 6.31 µM) | COc1nc2ccc(S(C)(=O)=O)cc2cc1C(c1ccc(Cl)cc1)C1(O)CCNC(Cc2ccc(F)cc2)C1 (stereo not drawn) [Compound 391] |
| 5.43 (≈ 12.6 µM) | COc1nc2ccc(Cl)cc2cc1C(c1ccc(Cl)cc1)C1(O)CCNCC1C (stereo not drawn) [Compound 423] |
| 10.89 (≈ 25.1 µM) | O=c1[nH]c2ccc(Cl)cc2cc1C(c1ccc(Cl)cc1)C1(O)CCNC(CO)C1 (stereo not drawn) [Compound 446] |
| 5.48 (≈ 12.6 µM) | COc1nc2ccc(Cl)cc2cc1C(c1ccc(Cl)cc1)C1(O)CCNCC1F (stereo not drawn) [Compound 449] |

Continued, compound first:

| Compound | IC90 STA B29213 [µg/mL] |
| --- | --- |
| COc1nc2ccc(Br)cc2cc1C(c1ccc(Cl)cc1)C1(O)CCNCC1Cc1ccccc1 (stereo not drawn) [Compound 41] | 3.48 (≈ 6.31 µM) |
| COc1nc2ccc(S(=O)(=O)C(C)C)cc2cc1C(c1ccc(Cl)cc1)C1(O)CCNC(Cc2ccccc2)C1 (stereo not drawn) [Compound 386] | 3.65 (≈ 6.3 µM) |
| COc1nc2ccc(S(=O)(=O)C(C)C)cc2cc1C(c1ccc(Cl)cc1)C1(O)CCNC(Cc2ccccc2)C1 (stereo not drawn) [Compound 387] | 14.55 (≈ 25.1 µM) |
| COc1nc2ccc(S(C)(=O)=O)cc2cc1C(c1ccc(Cl)cc1)C1(O)CCNC(Cc2ccc(F)cc2)C1 (stereo not drawn) [Compound 388] | 1.80 (≈ 3.16 µM) |
| C=CCC1CNCCC1(O)C(c1ccc(Cl)cc1)c1cc2cc(Br)ccc2nc1OC (stereo not drawn) [Compound 393] | 10.01 (≈ 19.9 µM) |
| C=CCC1CNCCC1(O)C(c1cccc(Cl)c1)c1cc2cc(Cl)ccc2nc1OC (stereo not drawn) [Compound 395] | 5.76 (≈ 12.6 µM) |
| COc1nc2ccc(F)cc2cc1C(c1ccc(S(C)(=O)=O)cc1)C1(O)CCNC(c2ccc(F)cc2C)C1 (stereo not drawn) [Compound 419] | 11.03 (≈ 20 µM) |
| COc1nc2ccc(Br)cc2cc1C(c1ccccc1)C1(O)CCNCC1C (stereo not drawn) [Compound 426] | >11.09 |
| COc1nc2ccc(Cl)cc2cc1C(c1ccc(Cl)cc1)C1(O)CCNCC1Cc1ccccn1 (stereo not drawn) [Compound 433] | 6.40 (≈ 12.6 µM) |
| COc1nc2ccc(Cl)cc2cc1C(c1ccc(Cl)cc1)C1(O)CCNCC1Cc1ccccn1 (stereo not drawn) [Compound 434] | 3.21 (≈ 6.31 µM) |
| COc1nc2ccc(S(C)(=O)=O)cc2cc1C(c1ccc(Cl)cc1)C1(O)CCNCC1Cc1cccc[n+]1[O-] (stereo not drawn) [Compound 447] | >14.27 |
| COc1nc2ccc(S(C)(=O)=O)cc2cc1C(c1ccc(Cl)cc1)C1(O)CCNCC1Cc1cccc[n+]1[O-] (stereo not drawn) [Compound 448] | >14.27 |

Same assay, conditions: Staphylococcus aureus, ATCC29213, 24 h, 90% inhibitory concentration for bacterial growth, resazurin fluorescence, read-out: IC90 STA B29213

| IC90 [µg/mL] | Compound |
| --- | --- |
| 2.76 (≈ 5 µM) | COc1nc2ccc(Br)cc2cc1C(c1cccc(Cl)c1)C1(O)CCNC(Cc2ccccc2)C1 (stereo not drawn) [Compound 35] |
| 3.42 (≈ 5.96 µM) | O=c1[nH]c2ccc(Br)cc2cc1C(c1ccc(Cl)cc1)C1(O)CCNC(Cc2ccc(F)c(F)c2)C1 (stereo not drawn) [Compound 40] |

System: Mycobacterium smegmatis (ATCC607)
Assay: In-vitro anti-bacterial activity against strain M. Smegmatis ATCC607
Format: cell-based
Details: 90% inhibitory concentration for bacterial growth, 48 hours, Alamar Blue fluorescence
Procedure, shortened: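 IC90 (μg/ml) derived from Alamar Blue fluorescence (530/590 nm) after 48 h growth at 37 °C under 5% CO2. About 250 CFU per well in Mueller-Hinton broth faced five-fold serial compound dilutions in BSA-containing wells.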

| IC90 MSM 607 [µg/mL] | Compound |
| --- | --- |
| 4.07 (≈ 7.57 µM) | O=c1[nH]c2ccc(Br)cc2cc1C(c1cccc(Cl)c1)C1(O)CCNC(Cc2ccccc2)C1 (stereo not drawn) [Compound 86] |
| 1.23 (≈ 2.52 µM) | C=CC1CC(O)(C(c2ccc(Cl)cc2)c2cc3cc(Br)ccc3nc2OC)CCN1 (stereo not drawn) [Compound 374] |
| 7.16 (≈ 12.6 µM) | COc1nc2ccc(S(C)(=O)=O)cc2cc1C(c1ccc(Cl)cc1)C1(O)CCNC(Cc2ccc(F)cc2)C1 (stereo not drawn) [Compound 389] |
| 11.36 (≈ 20 µM) | COc1nc2ccc(S(C)(=O)=O)cc2cc1C(c1ccc(Cl)cc1)C1(O)CCNC(Cc2ccc(F)cc2)C1 (stereo not drawn) [Compound 390] |
| 1.80 (≈ 3.16 µM) | COc1nc2ccc(S(C)(=O)=O)cc2cc1C(c1ccc(Cl)cc1)C1(O)CCNC(Cc2ccc(F)cc2)C1 (stereo not drawn) [Compound 391] |
| 3.43 (≈ 7.95 µM) | COc1nc2ccc(Cl)cc2cc1C(c1ccc(Cl)cc1)C1(O)CCNCC1C (stereo not drawn) [Compound 423] |
| 2.75 (≈ 6.32 µM) | COc1nc2ccc(Cl)cc2cc1C(c1ccc(Cl)cc1)C1(O)CCNCC1F (stereo not drawn) [Compound 449] |

Second part, the compound before the results:

| Compound | IC90 MSM 607 [µg/mL] |
| --- | --- |
| COc1nc2ccc(Br)cc2cc1C(c1ccc(Cl)cc1)C1(O)CCNCC1Cc1ccccc1 (stereo not drawn) [Compound 41] | 3.48 (≈ 6.31 µM) |
| COc1nc2ccc(S(=O)(=O)C(C)C)cc2cc1C(c1ccc(Cl)cc1)C1(O)CCNC(Cc2ccccc2)C1 (stereo not drawn) [Compound 386] | 2.90 (≈ 5.01 µM) |
| COc1nc2ccc(S(=O)(=O)C(C)C)cc2cc1C(c1ccc(Cl)cc1)C1(O)CCNC(Cc2ccccc2)C1 (stereo not drawn) [Compound 387] | 7.29 (≈ 12.6 µM) |
| COc1nc2ccc(S(C)(=O)=O)cc2cc1C(c1ccc(Cl)cc1)C1(O)CCNC(Cc2ccc(F)cc2)C1 (stereo not drawn) [Compound 388] | 3.59 (≈ 6.31 µM) |
| C=CCC1CNCCC1(O)C(c1ccc(Cl)cc1)c1cc2cc(Br)ccc2nc1OC (stereo not drawn) [Compound 393] | 6.32 (≈ 12.6 µM) |
| C=CCC1CNCCC1(O)C(c1cccc(Cl)c1)c1cc2cc(Cl)ccc2nc1OC (stereo not drawn) [Compound 395] | 2.89 (≈ 6.32 µM) |
| COc1nc2ccc(F)cc2cc1C(c1ccc(S(C)(=O)=O)cc1)C1(O)CCNC(c2ccc(F)cc2C)C1 (stereo not drawn) [Compound 419] | 11.03 (≈ 20 µM) |
| COc1nc2ccc(Br)cc2cc1C(c1ccccc1)C1(O)CCNCC1C (stereo not drawn) [Compound 426] | >11.09 |
| COc1nc2ccc(Cl)cc2cc1C(c1ccc(Cl)cc1)C1(O)CCNCC1Cc1ccccn1 (stereo not drawn) [Compound 434] | 3.21 (≈ 6.31 µM) |
| COc1nc2ccc(S(C)(=O)=O)cc2cc1C(c1ccc(Cl)cc1)C1(O)CCNCC1Cc1cccc[n+]1[O-] (stereo not drawn) [Compound 447] | >14.27 |
| COc1nc2ccc(S(C)(=O)=O)cc2cc1C(c1ccc(Cl)cc1)C1(O)CCNCC1Cc1cccc[n+]1[O-] (stereo not drawn) [Compound 448] | >14.27 |

Same assay, conditions: Mycolicibacterium smegmatis, ATCC607, 48 h, 90% inhibitory concentration for bacterial growth, Alamar Blue fluorescence, read-out: IC90 MSM 607

| IC90 [µg/mL] | Compound |
| --- | --- |
| 1.93 (≈ 3.36 µM) | O=c1[nH]c2ccc(Br)cc2cc1C(c1ccc(Cl)cc1)C1(O)CCNC(Cc2ccc(F)c(F)c2)C1 (stereo not drawn) [Compound 40] |
| 5.46 (≈ 12.6 µM) | O=c1[nH]c2ccc(Cl)cc2cc1C(c1ccc(Cl)cc1)C1(O)CCNC(CO)C1 (stereo not drawn) [Compound 446] |

The next lines start with the compound.

| Compound | IC90 [µg/mL] |
| --- | --- |
| COc1nc2ccc(Br)cc2cc1C(c1cccc(Cl)c1)C1(O)CCNC(Cc2ccccc2)C1 (stereo not drawn) [Compound 35] | 2.19 (≈ 3.97 µM) |
| COc1nc2ccc(Cl)cc2cc1C(c1ccc(Cl)cc1)C1(O)CCNCC1Cc1ccccn1 (stereo not drawn) [Compound 433] | 4.04 (≈ 7.95 µM) |

System: not given
Assay: not given
Details: not given

| melting point [°C] | Compound |
| --- | --- |
| 162 | C=CC1CC(O)(C(c2ccc(Cl)cc2)c2cc3cc(Br)ccc3nc2OC)CCN1 (stereo not drawn) [Compound 374] |
| 128 | COc1nc2ccc(S(C)(=O)=O)cc2cc1C(c1ccc(Cl)cc1)C1(O)CCNC(Cc2ccc(F)cc2)C1 (stereo not drawn) [Compound 389] |
| 170 | COc1nc2ccc(S(C)(=O)=O)cc2cc1C(c1ccc(Cl)cc1)C1(O)CCNC(Cc2ccc(F)cc2)C1 (stereo not drawn) [Compound 390] |
| 120 | COc1nc2ccc(S(C)(=O)=O)cc2cc1C(c1ccc(Cl)cc1)C1(O)CCNC(Cc2ccc(F)cc2)C1 (stereo not drawn) [Compound 391] |
| 174 | COc1nc2ccc(Cl)cc2cc1C(c1ccc(Cl)cc1)C1(O)CCNCC1C (stereo not drawn) [Compound 423] |
| 210 | O=c1[nH]c2ccc(Cl)cc2cc1C(c1ccc(Cl)cc1)C1(O)CCNC(CO)C1 (stereo not drawn) [Compound 446] |
| 190 | COc1nc2ccc(Cl)cc2cc1C(c1ccc(Cl)cc1)C1(O)CCNCC1F (stereo not drawn) [Compound 449] |

Further lines, the compound ahead of its results:

| Compound | melting point [°C] |
| --- | --- |
| COc1nc2ccc(S(=O)(=O)C(C)C)cc2cc1C(c1ccc(Cl)cc1)C1(O)CCNC(Cc2ccccc2)C1 (stereo not drawn) [Compound 386] | 125 |
| COc1nc2ccc(S(=O)(=O)C(C)C)cc2cc1C(c1ccc(Cl)cc1)C1(O)CCNC(Cc2ccccc2)C1 (stereo not drawn) [Compound 387] | 204 |
| COc1nc2ccc(S(C)(=O)=O)cc2cc1C(c1ccc(Cl)cc1)C1(O)CCNC(Cc2ccc(F)cc2)C1 (stereo not drawn) [Compound 388] | 103 |
| C=CCC1CNCCC1(O)C(c1ccc(Cl)cc1)c1cc2cc(Br)ccc2nc1OC (stereo not drawn) [Compound 393] | 159 to 161 |
| C=CCC1CNCCC1(O)C(c1cccc(Cl)c1)c1cc2cc(Cl)ccc2nc1OC (stereo not drawn) [Compound 395] | 150 to 152 |
| COc1nc2ccc(F)cc2cc1C(c1ccc(S(C)(=O)=O)cc1)C1(O)CCNC(c2ccc(F)cc2C)C1 (stereo not drawn) [Compound 419] | 154 |
| COc1nc2ccc(Br)cc2cc1C(c1ccccc1)C1(O)CCNCC1C (stereo not drawn) [Compound 426] | 174 |
| COc1nc2ccc(Cl)cc2cc1C(c1ccc(Cl)cc1)C1(O)CCNCC1Cc1ccccn1 (stereo not drawn) [Compound 433] | 114 |
| COc1nc2ccc(Cl)cc2cc1C(c1ccc(Cl)cc1)C1(O)CCNCC1Cc1ccccn1 (stereo not drawn) [Compound 434] | 197 |
| COc1nc2ccc(S(C)(=O)=O)cc2cc1C(c1ccc(Cl)cc1)C1(O)CCNCC1Cc1cccc[n+]1[O-] (stereo not drawn) [Compound 447] | 234 |
| COc1nc2ccc(S(C)(=O)=O)cc2cc1C(c1ccc(Cl)cc1)C1(O)CCNCC1Cc1cccc[n+]1[O-] (stereo not drawn) [Compound 448] | 182 |
